Measurements as given in patent publication US20090131422A1, “Salts of an IKK inhibitor” (Millennium Pharmaceuticals, Inc., priority 2007, published 2009).
Values after ≈ are worked out from the molar mass of the structure shown. Where a name gives a salt, the structure may show the parent alone.

Tests used:
[1] = Gravimetric vapor sorption (GVS); type: physicochemical; settings: 25° C.
Method: Gravimetric Vapor Sorption (GVS): Gravimetric vapor sorption (GVS) data are collected using either i) a SGA-100 Water Vapor Sorption Analyzer from VTI Corporation. Sample sizes are typically 5-10 mg. A moisture adsorption/desorption isotherm is recorded by subjecting samples to a series of relative humidity (RH) steps at a constant temperature of 25° C.; or ii) a Hiden IGASorp moisture sorption analyser running CFRSorp software, IGA Systems Software V3.00.23 and IGASorp Controller Version 1.10. Sample sizes are typically 10 mg. A moisture adsorption/desorption isotherm iserformed in the following way: Samples are loaded/unloaded at typical room humidity and temperature (40% RH, 25° C.) and analysed afterwards by XRPD. The isotherm run is two complete cycles. Each cycle begins at 40% RH and using 10% RH intervals goes to 90% RH then Dry then 40% RH.

[2] = physchem; settings: water
Method: Solubility: The water solubility of the Tartrate and Mono-HCl Salt was measured at ambient temperature.

C[C@@H]1CN(C(=O)CN2CC(C)(C)OC[C@H]2C(=O)Nc2cc(Cl)cc3c2[nH]c2cnccc23)C[C@H](C)O1 [Tartrate Salt, (S)—N-(6-chloro-9H-pyrido[3,4-b]indol-8-yl)-4-(2-((2S,6R)-2,6-dimethylmorpholino)-2-oxoethyl)-6,6-dimethylmorpholine-3-carboxamide hemi-L-tartrate hydrate]
moisture uptake at 70% RH [1]: 1.3% | moisture uptake at 90% RH [1]: 2.4% | hygroscopicity ([1]; vapor sorption profile): relatively non-hygroscopic

C[C@@H]1CN(C(=O)CN2CC(C)(C)OC[C@H]2C(=O)Nc2cc(Cl)cc3c2[nH]c2cnccc23)C[C@H](C)O1 [Malonate Salt, (S)—N-(6-chloro-9H-pyrido[3,4-b]indol-8-yl)-4-(2-((2S,6R)-2,6-dimethylmorpholino)-2-oxoethyl)-6,6-dimethylmorpholine-3-carboxamide malonate]
moisture uptake from 40-90% RH ([1]; 40-90% RH): 1.5 wt %

C[C@@H]1CN(C(=O)CN2CC(C)(C)OC[C@H]2C(=O)Nc2cc(Cl)cc3c2[nH]c2cnccc23)C[C@H](C)O1 [free base, (S)—N-(6-chloro-9H-pyrido[3,4-b]indol-8-yl)-4-(2-((2S,6R)-2,6-dimethylmorpholino)-2-oxoethyl)-6,6-dimethylmorpholine-3-carboxamide]
solubility [2]: ~10 µg/mL (≈ 19.5 µM)

C[C@@H]1CN(C(=O)CN2CC(C)(C)OC[C@H]2C(=O)Nc2cc(Cl)cc3c2[nH]c2cnccc23)C[C@H](C)O1 [Mono-Hydrochloride Salt, (S)—N-(6-chloro-9H-pyrido[3,4-b]indol-8-yl)-4-(2-((2S,6R)-2,6-dimethylmorpholino)-2-oxoethyl)-6,6-dimethylmorpholine-3-carboxamide mono-hydrochloride]
moisture uptake at 70% RH ([1]; mono-hydrochloride): 0.23% | moisture uptake at 90% RH ([1]; mono-hydrochloride): 1.7%
